According to ChEMBL document CHEMBL1148588, “Anthrax lethal factor protease inhibitors: synthesis, SAR, and structure-based 3D QSAR studies” (J Med Chem, 2006):

Molecular target: T1, Lethal factor (Bacillus anthracis, UniProt P15917)
T1 sequence (P15917 whole entry): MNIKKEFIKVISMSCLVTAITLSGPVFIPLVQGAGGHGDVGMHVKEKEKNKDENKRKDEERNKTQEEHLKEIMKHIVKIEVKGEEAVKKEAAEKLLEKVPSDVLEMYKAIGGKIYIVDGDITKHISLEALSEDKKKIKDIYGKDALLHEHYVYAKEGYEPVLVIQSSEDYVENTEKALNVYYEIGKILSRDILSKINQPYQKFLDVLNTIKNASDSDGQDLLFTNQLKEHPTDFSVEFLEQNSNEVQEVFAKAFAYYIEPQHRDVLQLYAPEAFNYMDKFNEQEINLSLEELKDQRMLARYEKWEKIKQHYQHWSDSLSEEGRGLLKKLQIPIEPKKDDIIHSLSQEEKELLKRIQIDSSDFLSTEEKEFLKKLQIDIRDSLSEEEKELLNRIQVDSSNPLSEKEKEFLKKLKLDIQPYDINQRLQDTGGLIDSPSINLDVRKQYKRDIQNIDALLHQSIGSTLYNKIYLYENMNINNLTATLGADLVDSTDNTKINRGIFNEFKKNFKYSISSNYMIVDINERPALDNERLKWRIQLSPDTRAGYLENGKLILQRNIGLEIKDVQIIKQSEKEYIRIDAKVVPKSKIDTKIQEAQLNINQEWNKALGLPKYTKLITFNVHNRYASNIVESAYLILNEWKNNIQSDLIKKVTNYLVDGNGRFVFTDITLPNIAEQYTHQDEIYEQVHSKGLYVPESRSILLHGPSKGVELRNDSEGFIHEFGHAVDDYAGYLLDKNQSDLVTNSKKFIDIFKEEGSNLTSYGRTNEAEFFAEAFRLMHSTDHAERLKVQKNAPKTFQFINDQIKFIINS
Experiment: Inhibitory activity against anthrax lethal factor metalloprotease

Row | Structure (SMILES) | IC50 [µM] | Log IC50
1 | CN1/C(=C/c2ccc(-c3ccc(Cl)cc3)o2)C(=O)NC1NC(=O)O (stereo not given) | > 100 | > -4
2 | O=C(O)CN1C(=O)S/C(=C\c2ccc(-c3ccc(Cl)cc3[N+](=O)[O-])o2)C1=O | 0.5 | –
3 | O=C(O)CN1C(=O)S/C(=C\c2ccc(-c3cc(C(F)(F)F)ccc3Cl)o2)C1=O | 5.9 | –
4 | O=C(O)CN1C(=O)/C(=C/c2ccc(-c3ccc(I)cc3)o2)SC1=S | 5.6 | –
